# Assay results: patent US20250034094A1, “A FAST AND EFFICIENT PROCESS FOR THE PREPARATION OF N-RETINYLIDENE-N-RETINYLETHANOLAMINE (A2E)” (Purdue Research Foundation, priority 2021, published 2025)
# Columns and labels:
# [1] = HPLC analysis, cited from earlier work
# ARPE19 cells = experiment: Cell viability assay (AlamarBlue) of ARPE19 cells treated with A2E lots, with or without inhibitors; format: cell-based; settings: RPE cells, 24 hours in the dark
# Protocol: ARPE19 cells from ATCC were plated at 80% confluency in 96-well plates and pre-treated for 1 hour with inhibitors (33 μM Necrostatin 7 (Cayman Chemicals): 2 mM N-acetyl-cysteine (NAC) (Sigma): 50 μg/ml phoroglucinol (Sigma)), after which the medium was supplemented with A2E/ATRD or vehicle (control) and cells were incubated in serum-free OptiMEM (Invitrogen) medium for an additional 23 hours at 37° C. To assess viability, 20 μL of 10× AlamarBlue® (Invitrogen) were added per well, and cells were incubated for an additional hour before reading the fluorescence in SpectraMax M5e (Molecular Devices, CA, USA) using 555 nm excitation/585 nm emission.
smiles,measurement,setting,value
"CC(C=CC1=C(C)CCCC1(C)C)=CC=CC(C)=Cc1cc(C=CC=C(C)C=CC2=C(C)CCCC2(C)C)cc[n+]1CCO [A2E, N-retinylidene-N-retinylethanolamine]","stability in THF, CHCl3 or EtOH","[1]; solvents THF, CHCl3 or EtOH",not stable
same,stability in methanol and DMSO,[1]; solvents methanol and DMSO,stable
"CC(C=CC1=C(C)CCCC1(C)C)=CC=CC(C)=Cc1cc(C=CC=C(C)C=CC2=C(C)CCCC2(C)C)cc[n+]1CCO [A2E #3, N-retinylidene-N-retinylethanolamine]",neutralization of A2E toxicity by necroptosis inhibitor Nec7,ARPE19 cells; pre-treated with 33 μM Necrostatin 7,"better neutralized with the necroptosis inhibitor, Nec7"
"CC(C=CC1=C(C)CCCC1(C)C)=CC=CC(C)=Cc1cc(C=CC=C(C)C=CC2=C(C)CCCC2(C)C)cc[n+]1CCO [A2E #1, N-retinylidene-N-retinylethanolamine]",protection from A2E-induced toxicity by antioxidants (NAC),ARPE19 cells; pre-treated with 2 mM N-acetyl-cysteine,partially protected by antioxidants (NAC)
